Values belong to the molecule of their own block, whether it stands above or below them.
Tested on: 292921-168-R-J2-PDC complex spheroid growth
Assay: Anticancer human tumor 292921-168-R-J2-PDC patient-derived pancreatic carcinoma cell line growth inhibition [AhR]
Conditions: for IC50: curve of first compound; for viability, T/C: stronger effect = lower value
From the text: Multicellular complex tumor spheroid response to aryl hydrocarbon receptor antagonists in combination with a variety of drugs and investigational agents in selected tumor cell lines
The current study was undertaken to assess response to aryl hydrocarbon receptor antagonists in combination with standard-of-care drugs and investigational agents in solid tumor complex spheroid models. Complex spheroids include a stromal component modeled by human endothelial cells (HUVEC) and fibroblasts modeled by human mesenchymal stem cells (MSCs). The concentration ranges selected for each drug and investigational agent were based upon clinically achievable concentrations if the clinical Cmax of the agent was known.
Compounds. The drugs and investigational agents: BAY 2416964 (NSC825713), GNF351 (NSC835774), CH-223191 (NSC835775), CPI-455 (NSC825282), aza-TdCyd (NSC777586), decitabine (NSC127716), belinostat (NSC758774), entinostat (NSC756642), pevonedistat (NSC761192), tazemetostat (NSC777109), talazoparib (NSC765396), olaparib (NSC753686), selinexor (NSC780203), nedisertib (M3814, NSC802822), bortezomib (NSC756655), venetoclax (NSC766270), doxorubicin (NSC123127), elimusertib (BAY189344, NSC800525), ceralasertib (AZD6738, NSC777638), TAK-243 (NSC785004), alisertib (NSC759677), etoposide (NSC141540), topotecan (NSC609699), eribulin (NSC707389), gemcitabine (NSC613327), carboplatin (NSC241240), cisplatin (NSC119875), and SN-38 (NSC673596) were obtained from the National Cancer Institute (NCI) Developmental Therapeutics Program Chemical Repository (32). The FDA-approved anticancer drug set is available from the Developmental Therapeutics Program at https://dtp.cancer.gov/organization/dscb/obtaining/available plates.htm. […] The stock solutions were prepared in dimethyl sulfoxide (DMSO, Sigma-Aldrich, St. Louis, MO, cat. D2650), except for the platinum compounds which were prepared in saline (Quality Biological, Gaithersburg, MD, cat. 114-055-101), at 800-fold the tested concentration and stored at -70 degrees C prior to their use. All drugs and investigational agents were tested over a range starting from a high concentration at or near the clinical Cmax and decreasing in half-log increments. If the clinical Cmax for an agent had not been determined, the highest concentration tested was 10 microM (Table 1).
Cell Culture. All cells were maintained in an incubator at 37 degrees C and 5% CO2 with 95% humidity. The PDC lines were cultured according to standard operating procedures established by the NCI PDMR (https://pdmr.cancer.gov). Briefly, all PDCs were thawed and cultured in Matrigel-coated flasks prepared with a working solution of 1X Ham's F-12 nutrient mix, without supplementation (Invitrogen, Waltham, MA, cat. 11765054), 100 U/mL penicillin-streptomycin (Invitrogen, cat. 15140122), and 2.5% Matrigel (Corning Inc., Corning, NY, cat. 354248) for the first three passages. All PDCs were cultured in complete DMEM/F-12 media containing advanced DMEM/F-12 (Invitrogen, cat. 12634028), 4.9% defined fetal bovine serum, heat inactivated (HyClone Laboratories Inc., Logan, UT, cat. SH30070.03HI), 389 ng/mL hydrocortisone (Sigma-Aldrich, cat. H4001), 9.7 ng/mL human EGF recombinant protein (Invitrogen, cat. PHG0313), 23.4 microg/mL adenine (Sigma-Aldrich, cat. A2786), 97.3 U/mL penicillin-streptomycin (Invitrogen, cat. 15140122), 1.9 mM L-glutamine (Invitrogen, cat. 25030081), and 9.7 microM Y-27632 dihydrochloride (Tocris Bioscience, Bristol, United Kingdom, cat. 1254). The PDCs were cultured in complete DMEM/F12 media without 10 microM Y-27632 dihydrochloride for at least two passages prior to the screen. The established cell lines NCI-H1341 and […] were cultured in DMEM/F-12, HEPES (Invitrogen, cat. 11330032), 5% defined fetal bovine serum (HyClone Laboratories Inc., cat. SH30070.03), ITS premix universal culture supplement [insulin (5 microg/mL), transferrin (5 microg/mL), and selenious acid (5 ng/mL)] […]

[1] = second compound 0.1 µM, first compound 0.0316 µM
[2] = second compound 0.1 µM, first compound 0.1 µM
[3] = second compound 0.1 µM, first compound 0.316 µM
[4] = second compound 0.1 µM, first compound 1 µM
[5] = second compound 0.1 µM, first compound 3.16 µM
[6] = second compound 0.1 µM, first compound 10 µM
[7] = second compound 0.316 µM, first compound 0.0316 µM
[8] = second compound 0.316 µM, first compound 0.1 µM
[9] = second compound 0.316 µM, first compound 0.316 µM
[10] = second compound 0.316 µM, first compound 1 µM
[11] = second compound 0.316 µM, first compound 3.16 µM
[12] = second compound 0.316 µM, first compound 10 µM
[13] = second compound 1 µM, first compound 0.0316 µM
[14] = second compound 1 µM, first compound 0.1 µM
[15] = second compound 1 µM, first compound 0.316 µM
[16] = second compound 1 µM, first compound 1 µM
[17] = second compound 1 µM, first compound 3.16 µM
[18] = second compound 1 µM, first compound 10 µM
[19] = second compound 3.16 µM, first compound 0.0316 µM
[20] = second compound 3.16 µM, first compound 0.1 µM
[21] = second compound 3.16 µM, first compound 0.316 µM
[22] = second compound 3.16 µM, first compound 1 µM
[23] = second compound 3.16 µM, first compound 3.16 µM
[24] = second compound 3.16 µM, first compound 10 µM
[25] = second compound 10 µM, first compound 0.0316 µM
[26] = second compound 10 µM, first compound 0.1 µM
[27] = second compound 10 µM, first compound 0.316 µM
[28] = second compound 10 µM, first compound 1 µM
[29] = second compound 10 µM, first compound 3.16 µM
[30] = second compound 10 µM, first compound 10 µM
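Also: spheroids exposed to compounds for seven days after three days of growth.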

IC50 (second compound 0.1 µM): < 31.6 nM
IC50 (second compound 0.316 µM): < 31.6 nM
IC50 (second compound 1 µM): < 31.6 nM
IC50 (second compound 3.16 µM): < 31.6 nM
IC50 (second compound 10 µM): < 31.6 nM
SMILES: COc1cc(Nc2ncc3c(n2)-c2ccc(Cl)cc2C(c2c(F)cccc2OC)=NC3)ccc1C(=O)O + CC(CO)NC(=O)c1cc(-c2ccc(Cl)cc2)nn(-c2cnn(C)c2)c1=O
viability, T/C [1]: 51%
viability, T/C [2]: 41.9%
viability, T/C [3]: 44.8%
viability, T/C [4]: 40.1%
viability, T/C [5]: 40.7%
viability, T/C [6]: 31.4%
viability, T/C [7]: 50.8%
viability, T/C [8]: 40.1%
viability, T/C [9]: 44.1%
viability, T/C [10]: 40.9%
viability, T/C [11]: 34.3%
viability, T/C [12]: 33.3%
viability, T/C [13]: 52.5%
viability, T/C [14]: 40.3%
viability, T/C [15]: 39.3%
viability, T/C [16]: 47.9%
viability, T/C [17]: 37.3%
viability, T/C [18]: 30%
viability, T/C [19]: 45.3%
viability, T/C [20]: 36.2%
viability, T/C [21]: 44.3%
viability, T/C [22]: 42%
viability, T/C [23]: 36.8%
viability, T/C [24]: 28.4%
viability, T/C [25]: 38.5%
viability, T/C [26]: 33.4%
viability, T/C [27]: 37.3%
viability, T/C [28]: 38.8%
viability, T/C [29]: 32.6%
viability, T/C [30]: 26.4%

IC50 (second compound 0.1 µM): > 100 nM
IC50 (second compound 0.316 µM): > 100 nM
IC50 (second compound 1 µM): > 100 nM
IC50 (second compound 3.16 µM): > 100 nM
IC50 (second compound 10 µM): > 100 nM
SMILES: Cn1ncnc1C1c2n[nH]c(=O)c3cc(F)cc(c23)NC1c1ccc(F)cc1 (stereo not given) + CC(CO)NC(=O)c1cc(-c2ccc(Cl)cc2)nn(-c2cnn(C)c2)c1=O
viability, T/C (second compound 0.1 µM, first compound 0.000316 µM): 103%
viability, T/C (second compound 0.1 µM, first compound 0.001 µM): 109%
viability, T/C (second compound 0.1 µM, first compound 0.00316 µM): 100%
viability, T/C (second compound 0.1 µM, first compound 0.01 µM): 99.8%
viability, T/C [1]: 94.3%
viability, T/C [2]: 87.6%
viability, T/C (second compound 0.316 µM, first compound 0.000316 µM): 109%
viability, T/C (second compound 0.316 µM, first compound 0.001 µM): 97.5%
viability, T/C (second compound 0.316 µM, first compound 0.00316 µM): 104%
viability, T/C (second compound 0.316 µM, first compound 0.01 µM): 96%
viability, T/C [7]: 96.5%
viability, T/C [8]: 79.9%
viability, T/C (second compound 1 µM, first compound 0.000316 µM): 108%
viability, T/C (second compound 1 µM, first compound 0.001 µM): 106%
viability, T/C (second compound 1 µM, first compound 0.00316 µM): 99.6%
viability, T/C (second compound 1 µM, first compound 0.01 µM): 89.9%
viability, T/C [13]: 86.3%
viability, T/C [14]: 94.3%
viability, T/C (second compound 3.16 µM, first compound 0.000316 µM): 92.2%
viability, T/C (second compound 3.16 µM, first compound 0.001 µM): 99.2%
viability, T/C (second compound 3.16 µM, first compound 0.00316 µM): 92.6%
viability, T/C (second compound 3.16 µM, first compound 0.01 µM): 92.9%
viability, T/C [19]: 77.1%
viability, T/C [20]: 77.4%
viability, T/C (second compound 10 µM, first compound 0.000316 µM): 68.5%
viability, T/C (second compound 10 µM, first compound 0.001 µM): 73.3%
viability, T/C (second compound 10 µM, first compound 0.00316 µM): 75.8%
viability, T/C (second compound 10 µM, first compound 0.01 µM): 73%
viability, T/C [25]: 67%
viability, T/C [26]: 64.6%

IC50 (second compound 0.1 µM): 213 nM
IC50 (second compound 0.316 µM): 221 nM
IC50 (second compound 1 µM): 223 nM
IC50 (second compound 3.16 µM): 208 nM
IC50 (second compound 10 µM): 169 nM
SMILES: NS(=O)(=O)OCC1CC(n2ccc3c(NC4CCc5ccccc54)ncnc32)CC1O (stereo not given) + CC(CO)NC(=O)c1cc(-c2ccc(Cl)cc2)nn(-c2cnn(C)c2)c1=O
viability, T/C [1]: 117%
viability, T/C [2]: 98.1%
viability, T/C [3]: 24.8%
viability, T/C [4]: 5.49%
viability, T/C [5]: 4.31%
viability, T/C [6]: 5.11%
viability, T/C [7]: 125%
viability, T/C [8]: 98%
viability, T/C [9]: 28.5%
viability, T/C [10]: 6.03%
viability, T/C [11]: 3.81%
viability, T/C [12]: 4.31%
viability, T/C [13]: 116%
viability, T/C [14]: 101%
viability, T/C [15]: 27.8%
viability, T/C [16]: 5.81%
viability, T/C [17]: 4.08%
viability, T/C [18]: 4.94%
viability, T/C [19]: 105%
viability, T/C [20]: 93.5%
viability, T/C [21]: 25.2%
viability, T/C [22]: 5.74%
viability, T/C [23]: 4%
viability, T/C [24]: 5.65%
viability, T/C [25]: 89.6%
viability, T/C [26]: 73.1%
viability, T/C [27]: 22.2%
viability, T/C [28]: 6.76%
viability, T/C [29]: 3.96%
viability, T/C [30]: 5.6%

IC50 (second compound 0.1 µM): 279 nM
IC50 (second compound 0.316 µM): 327 nM
IC50 (second compound 1 µM): 261 nM
IC50 (second compound 3.16 µM): 146 nM
IC50 (second compound 10 µM): < 31.6 nM
SMILES: O=C(C=Cc1cccc(S(=O)(=O)Nc2ccccc2)c1)NO + CC(CO)NC(=O)c1cc(-c2ccc(Cl)cc2)nn(-c2cnn(C)c2)c1=O
viability, T/C [1]: 72.2%
viability, T/C [2]: 56.7%
viability, T/C [3]: 48.6%
viability, T/C [4]: 35.1%
viability, T/C [5]: 28.5%
viability, T/C [6]: 1.96%
viability, T/C [7]: 74%
viability, T/C [8]: 63.3%
viability, T/C [9]: 46.1%
viability, T/C [10]: 36.3%
viability, T/C [11]: 30.7%
viability, T/C [12]: 2.62%
viability, T/C [13]: 67.8%
viability, T/C [14]: 57.3%
viability, T/C [15]: 46.5%
viability, T/C [16]: 35.4%
viability, T/C [17]: 28.7%
viability, T/C [18]: 3.31%
viability, T/C [19]: 64%
viability, T/C [20]: 52%
viability, T/C [21]: 41.9%
viability, T/C [22]: 31%
viability, T/C [23]: 22.5%
viability, T/C [24]: 2.61%
viability, T/C [25]: 50.4%
viability, T/C [26]: 43.6%
viability, T/C [27]: 39.1%
viability, T/C [28]: 29.1%
viability, T/C [29]: 20%
viability, T/C [30]: 1.62%

From PubChem BioAssay AID1918994 (Molecular Pharmacology Branch, DTP, NCI, 2023)
